In patent US20260365628A1, “SUBSTITUTED 3,4-DIHYDROQUINOLINONE INHIBITORS OF TSHR” (Septerna, Inc., priority 2022, published 2026):

target: T1, hTSHR (Homo sapiens, UniProt P16473); assay: hTSHR TR-FRET cAMP Assay (inhibition of M22-stimulated cAMP production); assay type: cell-based; details: Expi293F Inducible cells stably expressing hTSHR; cAMP HTRF; stimulated with EC80 of anti-TSHR antibody M22; 15 min compound preincubation, 30 min at 37° C.; read-out: Activity (IC50 bins)
T1 construct: expressed in transfected cells
Method in brief: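 Readout was a cAMP HTRF ratio of 655/620 nm after lysis, scaled between the EC80 M22 signal (0% inhibition) and no-agonist vehicle (100%). Frozen induced Expi293F-hTSHR cells saw test compounds (0.5% DMSO) for 15 min at 37 °C before 30 min of M22 stimulation at EC80.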

T1 sequence (P16473 21-764): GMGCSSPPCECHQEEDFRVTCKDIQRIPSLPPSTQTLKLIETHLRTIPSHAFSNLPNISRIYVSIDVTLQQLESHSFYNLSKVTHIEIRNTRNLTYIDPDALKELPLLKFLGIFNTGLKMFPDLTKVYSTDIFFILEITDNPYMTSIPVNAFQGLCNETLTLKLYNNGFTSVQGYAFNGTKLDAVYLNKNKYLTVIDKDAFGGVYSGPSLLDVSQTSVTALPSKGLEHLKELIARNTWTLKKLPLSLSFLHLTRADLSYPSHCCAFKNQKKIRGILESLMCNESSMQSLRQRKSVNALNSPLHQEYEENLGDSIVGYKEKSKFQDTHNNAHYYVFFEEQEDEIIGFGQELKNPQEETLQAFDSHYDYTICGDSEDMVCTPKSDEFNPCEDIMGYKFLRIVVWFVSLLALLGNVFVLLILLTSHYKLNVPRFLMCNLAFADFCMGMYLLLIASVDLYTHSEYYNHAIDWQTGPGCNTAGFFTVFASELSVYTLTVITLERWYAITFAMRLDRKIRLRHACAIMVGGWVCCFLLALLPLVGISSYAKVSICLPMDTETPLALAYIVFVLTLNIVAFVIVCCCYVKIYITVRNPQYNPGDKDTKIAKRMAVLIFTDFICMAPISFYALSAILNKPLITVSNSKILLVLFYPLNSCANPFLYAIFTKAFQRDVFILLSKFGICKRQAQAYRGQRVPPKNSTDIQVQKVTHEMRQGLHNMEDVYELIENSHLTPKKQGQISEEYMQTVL

| SMILES | IC50 |
| --- | --- |
| CC(C)(C)NC(=O)Nc1ccc2c(c1)CCC(=O)N2C1CCOc2ccccc21 (centres unmarked) [Example 298, 1-(tert-butyl)-3-(1-(chroman-4-yl)-2-oxo-1,2,3,4-tetrahydroquinolin-6-yl)urea] | > 1000 nM |
| C[C@@H](c1cccc(C(F)(F)F)n1)n1c(=O)cnc2cc(NC(=O)CCc3cccc(C(F)(F)F)c3)ccc21 [Example 299, (S)—N-(2-oxo-1-(1-(6-(trifluoromethyl)pyridin-2-yl)ethyl)-1,2-dihydroquinoxalin-6-yl)-3-(3-(trifluoromethyl)phenyl)propanamide] | 100 to 1000 nM |
| C[C@@H](c1cccc(C(F)(F)F)n1)n1c(=O)cnc2cc(NC(=O)CCC(C)(C)C)ccc21 [Example 300, (S)-4,4-dimethyl-N-(2-oxo-1-(1-(6-(trifluoromethyl)pyridin-2-yl)ethyl)-1,2-dihydroquinoxalin-6-yl)pentanamide] | 100 to 1000 nM |
| CC(C)(C)NC(=O)Nc1ccc2c(c1)CNC(=O)N2Cc1ccccc1 [Example 302, 1-(1-benzyl-2-oxo-1,2,3,4-tetrahydroquinazolin-6-yl)-3-(tert-butyl)urea] | > 1000 nM |
| CC(C)(C)NC(=O)Nc1ccc2c(c1)OC(CF)C(=O)N2Cc1ccccc1 (centres unmarked) [Example 305, 1-[4-benzyl-2-(fluoromethyl)-3-oxo-2H-1,4-benzoxazin-7-yl]-3-tert-butylurea] | 100 to 1000 nM |
| C[C@H](c1cncc(C(F)(F)F)n1)N1C(=O)[C@@H](C)Oc2cc(NC(=O)NC(C)(C)C)ccc21 [Example 307, 1-(tert-butyl)-3-((R)-2-methyl-3-oxo-4-((R)-1-(6-(trifluoromethyl)pyrazin-2-yl)ethyl)-3,4-dihydro-2H-benzo[b][1,4]oxazin-7-yl)urea] | 100 to 1000 nM |
| CC1(C)CCCC1C(=O)Nc1ccc2c(c1)ncc(=O)n2Cc1ccccc1 (centres unmarked) [Example 308, N-(1-benzyl-2-oxo-1,2-dihydroquinoxalin-6-yl)-2,2-dimethylcyclopentane-1-carboxamide] | 100 to 1000 nM |
| CC(c1cccc(OC(F)(F)F)c1F)n1c(=O)cnc2cc(NC(=O)NC(C)(C)C)ccc21 (centres unmarked) [Example 312, 1-(tert-butyl)-3-(1-(1-(2-fluoro-3-(trifluoromethoxy)phenyl)ethyl)-2-oxo-1,2-dihydroquinoxalin-6-yl)urea] | 100 to 1000 nM |
| C[C@@H](c1cccc(OCC(F)(F)F)c1)n1c(=O)cnc2cc(NC(=O)NC(C)(C)C)ccc21 [Example 313, (S)-1-(tert-butyl)-3-(2-oxo-1-(1-(3-(2,2,2-trifluoroethoxy)phenyl)ethyl)-1,2-dihydroquinoxalin-6-yl)urea] | > 1000 nM |
| C[C@@H](c1cccc(OC(F)(F)F)c1)n1c(=O)cnc2cc(NC(=O)C3CCCC3)ccc21 [Example 315, (S)—N-(2-oxo-1-(1-(3-(trifluoromethoxy)phenyl)ethyl)-1,2-dihydroquinoxalin-6-yl)cyclopentanecarboxamide] | 100 to 1000 nM |
| C[C@H]1Oc2cc(NC(=O)NC(C)(C)C)ccc2N([C@@H](C)c2nccc(C(F)(F)F)n2)C1=O [Example 316, 1-(tert-butyl)-3-((R)-2-methyl-3-oxo-4-((S)-1-(4-(trifluoromethyl)pyrimidin-2-yl)ethyl)-3,4-dihydro-2H-benzo[b][1,4]oxazin-7-yl)urea] | > 1000 nM |
| C[C@H](c1nccc(C(F)(F)F)n1)N1C(=O)[C@@H](C)Oc2cc(NC(=O)NC(C)(C)C)ccc21 [Example 317, 1-(tert-butyl)-3-((R)-2-methyl-3-oxo-4-((R)-1-(4-(trifluoromethyl)pyrimidin-2-yl)ethyl)-3,4-dihydro-2H-benzo[b][1,4]oxazin-7-yl)urea] | 100 to 1000 nM |
| C[C@@H](c1cccc(Cl)c1)n1c(=O)cnc2cc(NC(=O)NC3(C)CCC3)ccc21 [Example 319, (S)-1-(1-(1-(3-chlorophenyl)ethyl)-2-oxo-1,2-dihydroquinoxalin-6-yl)-3-(1-methylcyclobutyl)urea] | 100 to 1000 nM |
| C[C@H]1Oc2cc(NC(=O)NC3(C)CCCC3)ccc2N(Cc2cccc(OC(F)(F)F)n2)C1=O [Example 321, (R)-1-(2-methyl-3-oxo-4-((6-(trifluoromethoxy)pyridin-2-yl)methyl)-3,4-dihydro-2H-benzo[b][1,4]oxazin-7-yl)-3-(1-methylcyclopentyl)urea] | < 100 nM |
| C[C@H]1Oc2cc(NC(=O)N[C@H]3C[C@@H](C(F)(F)F)C3)ccc2N([C@@H](C)c2cccc(OC(F)(F)F)c2)C1=O [Example 325, 1-((R)-2-methyl-3-oxo-4-((S)-1-(3-(trifluoromethoxy)phenyl)ethyl)-3,4-dihydro-2H-benzo[b][1,4]oxazin-7-yl)-3-((1s,3S)-3-(trifluoromethyl)cyclobutyl)urea] | 100 to 1000 nM |
| C[C@H]1Oc2cc(NC(=O)NC(C)(C)C)c(F)cc2N(Cc2cccc(C(F)F)c2)C1=O [Example 327, (R)-1-(tert-butyl)-3-(4-(3-(difluoromethyl)benzyl)-6-fluoro-2-methyl-3-oxo-3,4-dihydro-2H-benzo[b][1,4]oxazin-7-yl)urea] | < 100 nM |
| C[C@H]1Oc2c(cc(F)c(NC(=O)NC(C)(C)C)c2F)N(Cc2ccccc2)C1=O [Example 329, (R)-1-(4-benzyl-6,8-difluoro-2-methyl-3-oxo-3,4-dihydro-2H-benzo[b][1,4]oxazin-7-yl)-3-(tert-butyl)urea] | 100 to 1000 nM |
| C[C@H]1Oc2cc(NC(=O)NC(C)(C)C)c(C(F)(F)F)cc2N(Cc2ccccc2)C1=O [Example 330, (R)-1-(4-benzyl-2-methyl-3-oxo-6-(trifluoromethyl)-3,4-dihydro-2H-benzo[b][1,4]oxazin-7-yl)-3-(tert-butyl)urea] | < 100 nM |

Next, values leading:

| IC50 | SMILES |
| --- | --- |
| 100 to 1000 nM | CC(C)(C)NC(=O)Nc1ccc2c(c1)OCC(=O)N2C(c1ccccc1)C(F)(F)F (centres unmarked) [Example 296, 1-(tert-butyl)-3-(3-oxo-4-(2,2,2-trifluoro-1-phenylethyl)-3,4-dihydro-2H-benzo[b][1,4]oxazin-7-yl)urea] |
| 100 to 1000 nM | COc1cccc([C@H](C)N2C(=O)CCc3cc(NC(=O)NC(C)(C)C)ccc32)c1 [Example 297, (S)-1-(tert-butyl)-3-(1-(1-(3-methoxyphenyl)ethyl)-2-oxo-1,2,3,4-tetrahydroquinolin-6-yl)urea] |
| > 1000 nM | CC(C)(C)NC(=O)Nc1ccc2c(c1)CC(C(F)(F)F)C(=O)N2Cc1ccccc1 (centres unmarked) [Example 301, 1-(1-benzyl-2-oxo-3-(trifluoromethyl)-1,2,3,4-tetrahydroquinolin-6-yl)-3-(tert-butyl)urea] |
| < 100 nM | C[C@H]1Oc2cc(NC(=O)OC3CCCC3)ccc2N([C@@H](C)c2ccccc2)C1=O [Example 303, cyclopentyl ((R)-2-methyl-3-oxo-4-((S)-1-phenylethyl)-3,4-dihydro-2H-benzo[b][1,4]oxazin-7-yl)carbamate] |
| < 100 nM | C[C@H]1Oc2cc(NC(=O)OC3CCCC3)ccc2N(Cc2cccc(C(F)(F)F)n2)C1=O [Example 304, cyclopentyl N-[(2R)-2-methyl-3-oxo-4-{[6-(trifluoromethyl)pyridin-2-yl]methyl}-2H-1,4-benzoxazin-7-yl]carbamate] |
| 100 to 1000 nM | CC(C)(C)NC(=O)Nc1ccc2c(c1)CCC(=O)N2C1CCc2ccccc21 (centres unmarked) [Example 309, 1-(tert-butyl)-3-(1-(2,3-dihydro-1H-inden-1-yl)-2-oxo-1,2,3,4-tetrahydroquinolin-6-yl)urea] |
| 100 to 1000 nM | C[C@H](c1cccc(OCC(F)(F)F)c1)n1c(=O)cnc2cc(NC(=O)NC(C)(C)C)ccc21 [Example 314, (R)-1-(tert-butyl)-3-(2-oxo-1-(1-(3-(2,2,2-trifluoroethoxy)phenyl)ethyl)-1,2-dihydroquinoxalin-6-yl)urea] |
| 100 to 1000 nM | C[C@@H](c1cccc(OC(F)(F)F)n1)n1c(=O)cnc2cc(NC(=O)CCc3cccc(C(F)(F)F)c3)ccc21 [Example 318, (S)—N-(2-oxo-1-(1-(6-(trifluoromethoxy)pyridin-2-yl)ethyl)-1,2-dihydroquinoxalin-6-yl)-3-(3-(trifluoromethyl)phenyl)propanamide] |
| 100 to 1000 nM | C[C@@H](c1cccc(C(F)(F)F)c1)n1c(=O)cnc2cc(NC(=O)NC3(C)CCC3)ccc21 [Example 320, (S)-1-(1-methylcyclobutyl)-3-(2-oxo-1-(1-(3-(trifluoromethyl)phenyl)ethyl)-1,2-dihydroquinoxalin-6-yl)urea] |
| < 100 nM | C[C@H]1Oc2cc(NC(=O)NC3(C)CCCC3)ccc2N([C@@H](C)c2cccc(C(F)(F)F)n2)C1=O [Example 322, 1-((R)-2-methyl-3-oxo-4-((S)-1-(6-(trifluoromethyl)pyridin-2-yl)ethyl)-3,4-dihydro-2H-benzo[b][1,4]oxazin-7-yl)-3-(1-methylcyclopentyl)urea] |
| < 100 nM | C[C@H]1Oc2cc(NC(=O)NC3(C)CCCC3)ccc2N([C@@H](C)c2cccc(OC(F)(F)F)n2)C1=O [Example 323, 1-((R)-2-methyl-3-oxo-4-((S)-1-(6-(trifluoromethoxy)pyridin-2-yl)ethyl)-3,4-dihydro-2H-benzo[b][1,4]oxazin-7-yl)-3-(1-methylcyclopentyl)urea] |
| 100 to 1000 nM | C[C@H]1Oc2cc(NC(=O)N[C@H]3C[C@H](C(F)(F)F)C3)ccc2N([C@@H](C)c2cccc(OC(F)(F)F)c2)C1=O [Example 324, 1-((R)-2-methyl-3-oxo-4-((S)-1-(3-(trifluoromethoxy)phenyl)ethyl)-3,4-dihydro-2H-benzo[b][1,4]oxazin-7-yl)-3-((1r,3R)-3-(trifluoromethyl)cyclobutyl)urea] |
| 100 to 1000 nM | C[C@H]1Oc2cc(NC(=O)NC(C)(C)C)c(F)cc2N(Cc2ccccc2)C1=O [Example 326, (R)-1-(4-benzyl-6-fluoro-2-methyl-3-oxo-3,4-dihydro-2H-benzo[b][1,4]oxazin-7-yl)-3-(tert-butyl)urea] |
| 100 to 1000 nM | C[C@H]1Oc2cc(NC(=O)NC(C)(C)C)c(F)cc2N([C@@H](C)c2ccccc2)C1=O [Example 328, 1-(tert-butyl)-3-((R)-6-fluoro-2-methyl-3-oxo-4-((S)-1-phenylethyl)-3,4-dihydro-2H-benzo[b][1,4]oxazin-7-yl)urea] |
